Where a name gives a salt, the structure may show the parent alone.
Legend:
[1] = test system: NCI-H358 non-small cell lung cancer cells; assay: Inhibition of NCI-H358 cell proliferation (CellTiter-Glo 3D, 7 days); type: cell-based; conditions: Homo sapiens, NCI-H358, 168 h, 3D microspheres, read-out: Inhibitory activity against NCI-H358 cell proliferation (IC50)
Description: The number of viable cells were detected by CellTiter-Glo 3D® reagent, thereby evaluating the inhibitory effect of compounds on cell proliferation. NCI-H358 non-small cell lung cancer cells (Nanjing cobioer) in the exponential growth phase were digested with trypsin-EDTA, and seeded into 96-well ultra-low attachment microplates at 100 µL per well with a density of 2000 cells/well. The cells were cultured overnight at 37°C with 5% CO2 to form microspheres. The test compounds were serially diluted 5-fold with DMSO to obtain 8 concentration gradient dilutions, then diluted with RPMI-1640 (10% FBS) cell culture medium respectively to obtain compound working solutions (2×). 100 µL per well was added to the cell supernatant, and the culture was continued for 7 days under the conditions of 37°C and 5% CO2. The well plate was removed, and 100 µL of CellTiter-Glo 3D® reagent was added. After lysis at room temperature for 10-30 minutes, 70 µL of the lysate was aspirated and transferred to a white opaque 384-well plate.
The inhibition rate was calculated by the following formula: [formula] Note: The negative control refers to the group without inhibitor, and the blank refers to the group without cells.
The inhibitory activities of some Example compounds and comparative compounds against NCI-H358 cell proliferation are shown in Table 2. Table 2. Inhibitory activity of some Example compounds against NCI-H358 cell proliferation

[2] = Rat liver microsomal metabolic stability; type: in vitro ADME; conditions: rat liver microsomes; for half-life at 1 µM: NADPH, 37°C; for CLint scaled at 1 µM: calculated from T1/2, fu defaulted to 1, read-out: CL(liver)
Excerpt: Metabolic stability affects the clearance rate, half-life, and oral bioavailability of compounds in the body, and is one of the most important ADME drug-like properties of compounds. Hepatocyte microsomal stability assay is a commonly used method for studying metabolic stability. In the present disclosure, rat liver microsomes are used to determine and investigate the metabolic stability of compounds.
Preparation of compound stock solution: an appropriate amount of the test compound and testosterone was taken, and a 1 mM stock solution was prepared with DMSO, which was stored in a refrigerator at 4°C.
Preparation of compound working solution: The 1 mM compound stock solution was taken respectively, and then diluted to 100 µM with acetonitrile-water (v:v = 1:1) to obtain the working solution.
Preparation of NADPH working solution: an appropriate amount of NADPH was weighed and dissolved in 16 mM MgCl2 to prepare a NADPH working solution with a concentration of 4.0 mM.
Preparation of rat liver microsome working solution: an appropriate amount of rat liver microsomes was taken and diluted with PBS to obtain a liver microsome working solution with a concentration of 1 mg/mL.
In the incubation system, 48 µL of PBS, 100 µL of rat liver microsome working solution, and 2 µL of the test compound working solution were sequentially added and mixed well. After pre-incubation at 37°C for 5 min, 50 µL of NADPH was added to initiate the reaction. After incubation for the corresponding time points, an appropriate amount of ice-cold acetonitrile containing an internal standard was added to terminate the reaction. The mixture was vortexed to mix well, centrifuged, and the supernatant was collected. The supernatant was injected into LC-MS/MS for detection of the residual metabolic amount of the compound.
Softwares of Excel, etc. were used for data processing according to the following formula. Ct = C0 •e^(−ke •t) [formula] when Ct = (1)/(2)C0 [formula] , T1/2 = (Ln2)/(ke) = (0.693)/(ke) [formula] CLint(mic) = (0.693)/(In vitro T1/2)•(1)/(mg/mL microsomal protein in reaction system) [formula] CLint(liver) = CLint(mic) •(mg microsomes)/(g liver)•(g liver)/(kg body weight) [formula] CL(liver) = (CLint(liver)×fu×Qh)/(CLint(liver)×fu+Qh) [formula] fu (unbound fraction in blood) was defaulted to be 1.

SOS1 = target: T1, SOS1 (Homo sapiens, UniProt Q07889); assay: biochemical
T1 sequence (Q07889 1-1333): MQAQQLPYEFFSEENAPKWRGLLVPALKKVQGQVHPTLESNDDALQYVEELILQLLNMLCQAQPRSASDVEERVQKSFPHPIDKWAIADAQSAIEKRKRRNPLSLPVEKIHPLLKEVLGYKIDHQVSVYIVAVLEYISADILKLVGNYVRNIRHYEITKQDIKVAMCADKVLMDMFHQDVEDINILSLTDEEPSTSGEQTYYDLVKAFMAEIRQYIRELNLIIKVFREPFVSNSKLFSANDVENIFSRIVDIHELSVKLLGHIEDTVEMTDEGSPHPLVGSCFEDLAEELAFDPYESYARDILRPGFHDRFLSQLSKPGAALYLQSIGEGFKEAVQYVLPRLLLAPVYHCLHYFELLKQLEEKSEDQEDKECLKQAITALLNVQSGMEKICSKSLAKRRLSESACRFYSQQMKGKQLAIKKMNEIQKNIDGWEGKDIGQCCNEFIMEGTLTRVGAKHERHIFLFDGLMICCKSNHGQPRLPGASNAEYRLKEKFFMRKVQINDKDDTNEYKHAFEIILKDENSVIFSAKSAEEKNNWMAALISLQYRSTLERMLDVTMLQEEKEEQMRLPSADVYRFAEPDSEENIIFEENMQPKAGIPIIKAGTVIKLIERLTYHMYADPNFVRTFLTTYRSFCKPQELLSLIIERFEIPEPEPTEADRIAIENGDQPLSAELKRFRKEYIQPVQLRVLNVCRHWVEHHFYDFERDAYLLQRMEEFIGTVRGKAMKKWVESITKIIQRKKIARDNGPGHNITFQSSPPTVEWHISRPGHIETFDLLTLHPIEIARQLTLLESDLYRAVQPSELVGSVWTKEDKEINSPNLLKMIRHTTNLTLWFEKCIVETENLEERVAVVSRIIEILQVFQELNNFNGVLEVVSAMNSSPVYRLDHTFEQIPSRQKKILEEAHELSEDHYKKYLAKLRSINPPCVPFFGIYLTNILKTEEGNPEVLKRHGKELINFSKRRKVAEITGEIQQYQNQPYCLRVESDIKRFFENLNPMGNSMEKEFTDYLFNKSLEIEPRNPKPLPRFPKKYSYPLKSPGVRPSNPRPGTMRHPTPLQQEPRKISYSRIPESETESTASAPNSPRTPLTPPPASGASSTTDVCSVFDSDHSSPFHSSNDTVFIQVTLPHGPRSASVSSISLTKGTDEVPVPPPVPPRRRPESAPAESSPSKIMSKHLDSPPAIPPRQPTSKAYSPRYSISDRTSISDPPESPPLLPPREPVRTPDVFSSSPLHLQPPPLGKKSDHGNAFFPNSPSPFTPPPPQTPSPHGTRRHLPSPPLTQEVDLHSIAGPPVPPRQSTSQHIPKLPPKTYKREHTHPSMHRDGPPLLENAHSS

SMILES | IC50 [1] | half-life at 1 µM [2] | CLint scaled at 1 µM [2] | IC50 (SOS1)
C[C@@H](Nc1nnc(N2CCN(C)CC2)c2cc(=O)n(C3CC(F)(F)C3)cc12)c1cccc(C(F)F)c1F [Example 90, (R)-6-(3,3-difluorocyclobutyl)-4-((1-(3-(difluoromethyl)-2-fluorophenyl)ethyl)amino)-1-(4-methylpiperazin-1-yl)pyrido[3,4-d]pyridazin-7(6H)-one] | 49.8 nM | 139 min | 13.5 mL/min/kg | 4.2 nM
CC(C)N1CCN(c2nnc(N[C@H](C)c3cccc(C(F)F)c3F)c3cn(C4CCC4)c(=O)cc23)CC1 [Example 113, (R)-6-cyclobutyl-4-((1-(3-(difluoromethyl)-2-fluorophenyl)ethyl)amino)-1-(4-isopropylpiperazin-1-yl)pyrido[3,4-d]pyridazin-7(6H)-one] | 24.2 nM | 135 min | 13.9 mL/min/kg | 4.5 nM
CCN1CCN(c2nnc(N[C@H](C)c3cccc(C(F)(F)F)c3C)c3cn(C4(C)CC4)c(=O)cc23)CC1 [Example 104, (R)-1-(4-ethylpiperazin-1-yl)-4-((1-(2-methyl-3-(trifluoromethyl)phenyl)ethyl)amino)-6-(1-methylcyclopropyl) pyrido[3,4-d]pyridazin-7(6H)-one] | 29.7 nM | 156 min | 12.4 mL/min/kg | 7.5 nM
C[C@@H](Nc1nnc(N2CCN(C3CCC3)CC2)c2cc(=O)n(C3(C)CC3)cc12)c1cccc(C(F)F)c1F [Example 220, (R)-1-(4-cyclobutylpiperazin-1-yl)-4-((1-(3-(difluoromethyl)-2-fluorophenyl)ethyl)amino)-6-(1-methylcyclopropyl) pyrido[3,4-d]pyridazin-7(6H)-one] | 56.7 nM | 80.4 min | 19.9 mL/min/kg | 4 nM
C[C@@H](Nc1nnc(N2CCN(CC3CC3)CC2)c2cc(=O)n(C3(C)CC3)cc12)c1cccc(C(F)F)c1F [Example 219, (R)-1-(4-(cyclopropylmethyl)piperazin-1-yl)-4-((1-(3-(difluoromethyl)-2-fluorophenyl)ethyl)amino)-6-(1-methylcyclopropyl) pyrido[3,4-d]pyridazin-7(6H)-one] | 25 nM | 168 min | 11.7 mL/min/kg | 4.7 nM
Cc1c([C@@H](C)Nc2nnc(N3CCN(C(C)C)CC3)c3cc(=O)n(C4(C)CC4)cc23)cccc1C(F)(F)F [Example 91, (R)-1-(4-isopropylpiperazin-1-yl)-4-((1-(2-methyl-3-(trifluoromethyl)phenyl)ethyl)amino)-6-(1-methylcyclopropyl) pyrido[3,4-d]pyridazin-7(6H)-one] | 38.5 nM | 151 min | 12.7 mL/min/kg | 5.7 nM
C[C@@H](Nc1nnc(N2CCN(C(C)(C)C)CC2)c2cc(=O)n(C3CC(F)(F)C3)cc12)c1cccc(C(F)F)c1F [Example 108, (R)-6-(3,3-difluorocyclobutyl)-4-((1-(3-(difluoromethyl)-2-fluorophenyl)ethyl)amino)-1-(4-(tert-butyl)piperazin-1-yl)pyrido[3,4-d]pyridazin-7(6H)-one] | 27 nM | 134 min | 13.9 mL/min/kg | 5.5 nM
CCN1CCN(c2nnc(N[C@H](C)c3cccc(C(F)(F)CO)c3)c3cn(C4(C)CC4)c(=O)cc23)CC1 [Example 227, (R)-4-((1-(3-(1,1-difluoro-2-hydroxyethyl)phenyl)ethyl)amino)-1-(4-ethylpiperazin-1-yl)-6-(1-methylcyclopropyl) pyrido[3,4-d]pyridazin-7(6H)-one] | 48.2 nM | – | – | 3.8 nM
C[C@@H](Nc1nnc(N2CCN(C3CCCC3)CC2)c2cc(=O)n(C3(C)CC3)cc12)c1cccc(C(F)F)c1F [Example 221, (R)-1-(4-cyclopentylpiperazin-1-yl)-4-((1-(3-(difluoromethyl)-2-fluorophenyl)ethyl)amino)-6-(1-methylcyclopropyl) pyrido[3,4-d]pyridazin-7(6H)-one] | 53.6 nM | 67.3 min | 22.2 mL/min/kg | 5 nM
C[C@@H](Nc1nnc(N2CCN(C)C[C@@H]2C)c2cc(=O)n(C3(C)CC3)cc12)c1cccc(C(F)F)c1F [Example 195, 4-(((R)-1-(3-(difluoromethyl)-2-fluorophenyl)ethyl)amino)-1-((S)-2,4-dimethylpiperazin-1-yl)-6-(1-methylcyclopropyl) pyrido[3,4-d]pyridazin-7(6H)-one] | 25.6 nM | – | – | 3.7 nM
CCNc1nnc(N[C@H](C)c2cccc(C(F)(F)F)c2C)c2cn(C3(C)CC3)c(=O)cc12 [Example 97, (R)-1-(ethylamino)-4-((1-(2-methyl-3-(trifluoromethyl)phenyl)ethyl)amino)-6-(1-methylcyclopropyl) pyrido[3,4-d]pyridazin-7(6H)-one] | 36.8 nM | 105 min | 16.7 mL/min/kg | 5.1 nM
C[C@@H]1CN(c2nnc(N[C@H](C)c3cccc(C(F)(F)F)c3)c3cn(C4(C)CC4)c(=O)cc23)CCN1C [Example 176, 1-((R)-3,4-dimethylpiperazin-1-yl)-6-(1-methylcyclopropyl)-4-(((R)-1-(3-(trifluoromethyl)phenyl)ethyl)amino)pyr ido[3,4-d]pyridazin-7(6H)-one formate] | 32.3 nM | – | – | 6 nM
